This is an account of results in patent US20070293553A1, “Diphenylurea Derivatives Useful As Potassium Channel Activators” (priority 2004, published 2007).

Series [1] deals with cough reflex in conscious guinea-pigs. Briefly: Citric acid-induced cough in conscious guinea-pigs. It counts as in vivo, guinea-pig. The settings on record: prior exposure to aerosolized test compound (300 μM in nebulizer solution), 10 minutes citric acid aerosol, FIG. 1. Here is the method: Exposure of animals for 10 minutes with citric acid aerosol elicited a reproducible cough response.
The cough model is based on guinea-pigs that have been pre-screened to assess their cough response to a 10 minutes exposure of aerosolised 0.35 M citric acid. […] The guinea-pigs are then ranked with regard to their tussive response to citric acid and divided into groups so that the mean number of coughs per group is similar in the vehicle and drug treated groups.
Cough is detected both by pressure change and by sound and recorded using a chart recorder. All animals received Terbutaline (0.05 mg/kg i.p.) 10 minutes prior to challenge with citric acid to alleviate any bronchoconstriction that may occur. These animals were allowed to recover for 1 week. Following this rest period the study was initiated and animals received aerosolised vehicle (1% DMSO) or test compound at 300 μM in 1% DMSO in saline for 20 minutes prior to exposure to citric acid. After dosing, the animals were monitored and exposed to 0.35 M citric acid for 10 minutes, and the number of coughs recorded.
Initially N-(3,5-Dichlorophenyl)-N′-[3-(1H-tetrazol-5-yl)-3′-trifluoromethyl-bi-phenyl-4-yl]-urea (Compound A (3-39)) and N-(3,5-Dichlorophenyl)-N′-[4-bromo-2-(1H-tetrazol-5-yl)phenyl]urea (Compound B) were subjected to this determination, and the results of these determinations are presented in FIG. 1.

On to `O=C(Nc1cc(Cl)cc(Cl)c1)Nc1ccc(-c2cccc(C(F)(F)F)c2)cc1-c1nnn[nH]1` [Compound 3-39, N-(3,5-Dichloro-phenyl)-N′-[3-(1H-tetrazol-5-yl)-3′-trifluoromethyl-biphenyl-4-yl]-urea], for which the melting point is 236 to 239 °C. In series [1], the “cough response to citric acid” value is on record as “greatly reduced”.

As to `O=C(Nc1cc(Cl)cc(Cl)c1)Nc1ccc(Br)cc1-c1nnn[nH]1` [Compound B, N-(3,5-Dichlorophenyl)-N′-[4-bromo-2-(1H-tetrazol-5-yl)phenyl]urea], in series [1], the “cough response to citric acid” value was “greatly reduced”.

`O=C(Nc1ccc(F)c(C(F)(F)F)c1)Nc1ccc(-c2ccc(Cl)cc2)cc1-c1nnn[nH]1` [Compound 3-15, N-(4-Fluoro-3-trifluoromethyl-phenyl)-N′-[4′-chloro-3-(1H-tetrazol-5-yl)-biphenyl-4-yl]-urea] had a melting point of 243 to 245 °C.

For `O=C(Nc1cc(C(F)(F)F)cc(C(F)(F)F)c1)Nc1ccc(-c2ccc(F)cc2)cc1-c1nnn[nH]1` [Compound 3-16, N-(3,5-Bis-trifluoromethyl-phenyl)-N′-[4′-fluoro-3-(1H-tetrazol-5-yl)-biphenyl-4-yl]-urea], the melting point is 251 to 253 °C.

Regarding `O=C(Nc1cc(Cl)cc(Cl)c1)Nc1ccc(-c2ccc(C(F)(F)F)cc2)cc1-c1nnn[nH]1` [Compound 3-6, N-(3,5-Dichloro-phenyl)-N′-[3-(1H-tetrazol-5-yl)-4′-trifluoromethyl-biphenyl-4-yl]-urea], the melting point lay within 226 to 230 °C.

Compound `O=C(Nc1ccccc1F)Nc1ccc(-c2ccc(Cl)cc2)cc1-c1nnn[nH]1` [Compound 3-25, N-(2-Fluoro-phenyl)-N′-[4′-chloro-3-(1H-tetrazol-5-yl)-biphenyl-4-yl]-urea] displayed a melting point of 257 to 259 °C.

In turn, `O=C(Nc1cccc(Br)c1)Nc1ccc(-c2ccc(C(F)(F)F)cc2)cc1-c1nnn[nH]1` [Compound 3-43, N-(3-Bromo-phenyl)-N′-[3-(1H-tetrazol-5-yl)-4′-trifluoromethyl-biphenyl-4-yl]-urea] displayed a melting point of 203 to 210 °C.

For the compound `O=C(Nc1ccc(Cl)c(C(F)(F)F)c1)Nc1ccc(-c2ccc(F)cc2)cc1-c1nnn[nH]1` [Compound 3-9, N-(4-Chloro-3-trifluoromethyl-phenyl)-N′-[4′-fluoro-3-(1H-tetrazol-5-yl)-biphenyl-4-yl]-urea], the melting point fell in the range of 247 to 249 °C.

Consider `O=C(Nc1ccccc1F)Nc1ccc(-c2ccc(C(F)(F)F)cc2)cc1-c1nnn[nH]1` [Compound 3-24, N-(2-Fluoro-phenyl)-N′-[3-(1H-tetrazol-5-yl)-4′-trifluoromethyl-biphenyl-4-yl]-urea], for which the melting point is 251 to 252 °C.

The compound `COc1ccc(-c2ccc(NC(=O)Nc3cc(F)cc(F)c3)c(-c3nnn[nH]3)c2)cc1` [Compound 3-41, N-(3,5-Difluoro-phenyl)-N′-[4′-methoxy-3-(1H-tetrazol-5-yl)-biphenyl-4-yl]-urea] displayed a melting point of 129 to 133 °C.
